ChEMBL document CHEMBL1131685, “Design and semisynthesis of spermine-sensitive Ribonuclease S'” (Bioorg Med Chem Lett, 1999)

Assays:
[1] = Binding constant for spermine binding to Ribonuclease S (RNA ase) by saturation curve method
[2] = Association constant required to reduce the S-peptide / S-protein association by nonlinear curve fitting analysis; assay type: ADME

| Log K [1] | Log K [2] | Compound |
| --- | --- | --- |
| 3.7 | – | C1CNCCNCCNCCN1 |
| 5 | – | NCCNCCNCCN |
| – | 7.1 | H-KEEAAAKFERQHMDS-OH |

The next lines start with the compound.

| Compound | Log K [1] | Log K [2] |
| --- | --- | --- |
| NCCCCNCCCN | 5.4 | – |
| NCCCNCCCCNCCCN | 5 | – |
| NCCN(CCN)CCN | 5 | – |
| H-EETAEAKFERQHMDS-OH | – | 6.5 |
| H-KEDAADKFERQHMDS-OH | – | 7.1 |
| H-KEEAAEKFERQHMDS-OH | – | 6.9 |
| H-KETAAAKFERQHMDS-OH | – | 7.6 |
